Measured values taken from patent publication US20260130395A1, “Water Dispersible Botanical Compositions” (Aquila Black Limited, priority 2021, published 2026).

Assay: Stability of cannabinoid compounds and Vitamin E components in Beverage 2 (AB Red) by LCMSMS
Assay type: physicochemical

In the case of `CCCc1cc(O)c2c(c1)OC(C)(C)[C@@H]1CCC(C)=C[C@@H]21` [THCV, delta-9-tetrahydrocannabivarin], the “Stability of Plant-Derived Cannabinoid Compounds in AB Red” value (“Stability” for short) (stored at 8° C., 0 days) is reported as 3.22 µg/mL, the “Stability” value (stored at 8° C., 1 days) is reported as 3.19 µg/mL and the “Stability” value (stored at 8° C., 2 days) is reported as 3.17 µg/mL. The “Stability” value (stored at 8° C., 3 days) was 3.20 µg/mL, the “Stability” value (stored at 8° C., 5 days) was 3.24 µg/mL and the “Stability” value (stored at 8° C., 8 days) was 3.17 µg/mL. For the same compound, the “Stability” value (stored at 8° C., 9 days) was 3.14 µg/mL, the “Stability” value (stored at 8° C., 10 days) was 3.14 µg/mL and the “Stability” value (stored at 8° C., 11 days) was 3.24 µg/mL. For the same compound, the “Stability” value (stored at 8° C., 12 days) was 3.25 µg/mL, the “Stability” value (stored at 8° C., 15 days) was 3.19 µg/mL and the “Stability” value (stored at 8° C., 16 days) was 3.25 µg/mL. For the same compound, the “Stability” value (stored at 8° C., 17 days) was 3.12 µg/mL, the “Stability” value (stored at 8° C., 18 days) was 3.17 µg/mL and the “Stability” value (stored at 8° C., 19 days) was 3.19 µg/mL. For the same compound, the “Stability” value (stored at 8° C., 22 days) was 3.22 µg/mL, the “Stability” value (stored at 8° C., 23 days) was 3.25 µg/mL and the “Stability” value (stored at 8° C., 24 days) was 3.15 µg/mL. The “Stability” value (stored at 8° C., 25 days) was 3.25 µg/mL, the “Stability” value (stored at 8° C., 26 days) was 3.13 µg/mL and the “Stability” value (stored at 8° C., 29 days) was 3.22 µg/mL. For the same compound, the “Stability” value (stored at 8° C., 30 days) was 3.20 µg/mL, the “Stability” value (stored at 8° C., 60 days) was 3.11 µg/mL and the “Stability” value (stored at 8° C., 90 days) was 3.10 µg/mL. For the same compound, the “Stability” value (stored at 8° C., 120 days) was 3.10 µg/mL, the “Stability” value (stored at 8° C., 150 days) was 3.15 µg/mL and the “Stability” value (stored at 8° C., 180 days) was 3.10 µg/mL. For the same compound, the “Stability” value (stored at 8° C., 210 days) was 3.15 µg/mL, the “Stability” value (stored at 8° C., 240 days) was 3.08 µg/mL and the “Stability” value (stored at 8° C., 270 days) was 3.15 µg/mL. For the same compound, the “Stability” value (stored at 8° C., 300 days) was 3.15 µg/mL, the “Stability” value (stored at 8° C., 330 days) was 3.15 µg/mL and the “Stability” value (stored at 8° C., 360 days) was 3.08 µg/mL. The “Stability” value (stored at 8° C., 390 days) was 3.08 µg/mL, the “Stability” value (stored at 8° C., 420 days) was 3.13 µg/mL and the “Stability” value (stored at 8° C., 450 days) was 3.08 µg/mL. The “Stability” value (stored at 8° C., 480 days) was 3.05 µg/mL, the “Stability” value (stored at 8° C., 510 days) was 2.95 µg/mL and the “Stability” value (stored at 8° C., 540 days) was 2.99 µg/mL. The “Stability” value (stored at 8° C., 570 days) was 2.95 µg/mL, the “Stability” value (stored at 21-25° C., 0 days) was 3.22 µg/mL and the “Stability” value (stored at 21-25° C., 1 days) was 3.13 µg/mL. The “Stability” value (stored at 21-25° C., 2 days) was 3.20 µg/mL, the “Stability” value (stored at 21-25° C., 3 days) was 3.25 µg/mL and the “Stability” value (stored at 21-25° C., 5 days) was 3.25 µg/mL. The “Stability” value (stored at 21-25° C., 8 days) was 3.19 µg/mL, the “Stability” value (stored at 21-25° C., 9 days) was 3.17 µg/mL and the “Stability” value (stored at 21-25° C., 10 days) was 3.09 µg/mL. The “Stability” value (stored at 21-25° C., 11 days) was 3.24 µg/mL, the “Stability” value (stored at 21-25° C., 12 days) was 3.24 µg/mL and the “Stability” value (stored at 21-25° C., 15 days) was 3.20 µg/mL. For the same compound, the “Stability” value (stored at 21-25° C., 16 days) was 3.20 µg/mL, the “Stability” value (stored at 21-25° C., 17 days) was 3.11 µg/mL and the “Stability” value (stored at 21-25° C., 18 days) was 3.19 µg/mL. For the same compound, the “Stability” value (stored at 21-25° C., 19 days) was 3.19 µg/mL, the “Stability” value (stored at 21-25° C., 22 days) was 3.18 µg/mL and the “Stability” value (stored at 21-25° C., 23 days) was 3.23 µg/mL. The “Stability” value (stored at 21-25° C., 24 days) was 3.25 µg/mL, the “Stability” value (stored at 21-25° C., 25 days) was 3.24 µg/mL and the “Stability” value (stored at 21-25° C., 26 days) was 3.11 µg/mL. For the same compound, the “Stability” value (stored at 21-25° C., 29 days) was 3.15 µg/mL, the “Stability” value (stored at 21-25° C., 30 days) was 3.15 µg/mL and the “Stability” value (stored at 21-25° C., 60 days) was 3.18 µg/mL. For the same compound, the “Stability” value (stored at 21-25° C., 90 days) was 3.05 µg/mL, the “Stability” value (stored at 21-25° C., 120 days) was 3.09 µg/mL and the “Stability” value (stored at 21-25° C., 150 days) was 3.17 µg/mL. For the same compound, the “Stability” value (stored at 21-25° C., 180 days) was 3.10 µg/mL, the “Stability” value (stored at 21-25° C., 210 days) was 3.03 µg/mL and the “Stability” value (stored at 21-25° C., 240 days) was 3.18 µg/mL. For the same compound, the “Stability” value (stored at 21-25° C., 270 days) was 3.04 µg/mL, the “Stability” value (stored at 21-25° C., 300 days) was 3.14 µg/mL and the “Stability” value (stored at 21-25° C., 330 days) was 3.19 µg/mL. For the same compound, the “Stability” value (stored at 21-25° C., 360 days) was 3.05 µg/mL, the “Stability” value (stored at 21-25° C., 390 days) was 3.04 µg/mL and the “Stability” value (stored at 21-25° C., 420 days) was 3.10 µg/mL. For the same compound, the “Stability” value (stored at 21-25° C., 450 days) was 3.14 µg/mL, the “Stability” value (stored at 21-25° C., 480 days) was 3.04 µg/mL and the “Stability” value (stored at 21-25° C., 510 days) was 3.01 µg/mL. The “Stability” value (stored at 21-25° C., 540 days) was 2.95 µg/mL and the “Stability” value (stored at 21-25° C., 570 days) was 2.98 µg/mL.
